# Columns and labels:
# Type in all cases: cell-based, murine
# p38 = assay: Western blot of LPS-induced p38 phosphorylation in BV-2 cells; conditions: 5–20 µM; LPS 30 min, similar pattern at 24 h
# Procedure: (§1) BV-2 cells were seeded in a 6-well plate at a density of 6 × 10^5 cells/well and exposed to LPS (100 ng/mL) in the presence or absence of compound 3 for required time. After treatment, cells were collected and lysed in cell lysis buffer (50 mM Tris–HCl, pH 8.0, 0.1% SDS, 150 mM NaCl, 1% NP-40, 0.02% sodium azide, 0.5% sodium deoxycholate, 100 µg/mL PMSF, and […]) for 24 h at 4 °C. The protein content was measured using a Bradford assay. Equal amounts of protein (30 µg) were separated using SDS-PAGE and transferred to a nitrocellulose membrane. The membrane was blocked for 1 h with 5% skim milk in tris-buffered saline with Tween-20 (TBST) and then incubated for 12 h with primary antibodies against α-tubulin (Sigma-Aldrich Cat. no: T5168), iNOS (Bioscience Cat. no: 610333, COX-2 (Santa Cruz Cat. no: sc-1745), ERK (Cell Signaling Cat. no: 9107s), pERK (Cell Signaling Cat. no: 5013s), JNK (Cell Signaling Cat. no: 9252s), pJNK (Cell Signaling Cat. no: 4671s), p38 (Cell Signaling Cat. no: 8690s), and pP38 (Cell Signaling Cat. no: 9211s), followed by incubation for 1 h with horseradish peroxidase-conjugated secondary antibodies (Cell Signaling) at 15 °C. […]
# (§2) Fig. 3 Effect of compound 3 on MAPK pathway in LPS-induced BV-2 cells. […] The phosphorylation of p38, JNK, and ERK was measured by western blotting (a–c). […]
# N2a cells = assay: Annexin V/PI staining (FACS) of N2a cells given conditioned media from BV-2 cells; conditions: CM of compound at each concentration tested (5, 10, 20 µM)
# Procedure: An annexin V/PI apoptosis kit was used in accordance with the manufacturer’s instructions to quantify the percentage of cells undergoing apoptosis. First, BV-2 cells were incubated for 24 h with 5, 10, and 20 µM of compound 3 or LPS (100 ng/mL). Then, N2a cells were treated with the supernatant of the treated BV-2 cells and incubated. After 24 h, the cells were collected, washed twice with cold PBS, and re-suspended in binding buffer at a concentration of […]. Annexin V-FITC (5 µL) and PI (10 µL) were added, and the cells were incubated for 15 min at room temperature in the dark. Following incubation, 200 µL of binding buffer was added, and the cells were immediately analyzed by flow cytometry (FACSAriaIII; BD Biosciences, Franklin Lakes, NJ, USA). The flow cytometric analysis was performed using the Cell Quest software (BD Biosciences). The annexin V+/PI− cells and annexin V−/PI+ cells were used to identify apoptotic cells and necrotic cells, respectively. The procedure was repeated three times for each sample.
# Fig. 4 Neuroprotection of compound 3 in LPS-activated microglia in N2a cells. […] An annexin V/PI apoptosis kit was used to quantify the percentage of cells undergoing apoptosis and necrosis (x-axis, annexin V; y-axis, PI) by using FACS analysis. […]
# [1] = test system: NO production in LPS-activated BV-2 cells; assay: Nitrite (Griess) assay of NO production in LPS-activated BV-2 cells
# Procedure: […] or MTT assay was performed as described by our previous publication with slight modification. In order to measure MTT and NO production, BV-2 cells were plated into a 96-well plate at a density of 4 × 10^4 cells/well. […] Then, nitrite (a soluble oxidation product of NO) was detected in the culture media by using the Griess reaction. The supernatant (50 µL) was collected and mixed with an equal volume of Griess reagent (1% sulfanilamide in phosphoric acid and 0.1% N-1-napthylethylenediamine dihydrochloride). The absorbance was measured at 570 nm by using a microplate reader. Sodium nitrite was used to create a standard curve from which the NO2 concentration was calculated. The cell viability was evaluated by spectrophotometrically measuring the reduction of yellow 3-[4,5-dimethylthiazol-2-yl]-2,5-diphenyltetrazolium bromide (MTT) to purple formazan crystals. MTT was dissolved in DMEM, added to the culture plate containing cells at a final concentration of 0.5 mg/mL, and incubated for 1 h. The medium containing the MTT solution was carefully removed, and 200 µL DMSO was added to each well. After solubilizing the stained cells to produce a formazan-colored solution, the optical density (OD) was measured on a microplate reader at 570 nm, and the results were expressed as a percentage of the LPS-treated group. The same plate was used for the NO and MTT assays. The cell supernatant was used for the NO assay, and the plated cells were used for the MTT assay.
# The NO production and cell viability of LPS-activated BV-2 cells were measured after treatment with azine derivatives using Griess reagent and MTT assay, respectively.
# [2] = test system: extracellular signal-regulated kinase (ERK); assay: Western blot of LPS-induced ERK phosphorylation in BV-2 cells; conditions: 5–20 µM; LPS 30 min, similar pattern at 24 h
# Procedure: as §1, §2
# [3] = test system: c-Jun N-terminal kinase (JNK); assay: Western blot of LPS-induced JNK phosphorylation in BV-2 cells; conditions: 5–20 µM; LPS 30 min, similar pattern at 24 h
# Procedure: as §1, §2
compound,measurement,setting,value
"COc1cc(/C=C/C=N/N=C/C=C/c2ccc(O)c(OC)c2)ccc1O [Compound 3, 4,4′-(1E,1′E,3E,3′E)-3,3′-(hydrazine-1,2-diylidene)bis(prop-1-ene-1-yl-3-ylidene)bis(2-methoxyphenol)]",LPS-induced phosphorylation of p38,p38,significantly inhibited
same,Concentration of apoptotic and necrotic N2a cells,N2a cells,decrease
same,LPS-induced NO production,[1]; LPS-activated BV-2 cells,strongly inhibited
same,IC50,"[1]; Mus musculus, BV-2, 100 ng/mL LPS, 24 h, Griess reaction, read-out: IC50, concentration that caused 50% inhibition of NO production in LPS-activated BV-2 cells",12.5 µM
same,Phosphorylation of ERK,[2],did not alter
same,LPS-induced phosphorylation of JNK,[3],significantly inhibited

# From paper PMC5745756, “N,N-disubstituted azines attenuate LPS-mediated neuroinflammation in microglia and neuronal apoptosis via inhibiting MAPK signaling pathways” (BMC Neuroscience, 2017)
